Experimental data reported in patent publication US20050100507A1, “Chemotactic peptide antagonists for imaging sites of inflammation” (Bracco Imaging S.p.A., priority 1998, published 2005).
Square brackets hold non-standard residues; d marks the D form. Ends that are not written are not given here. * marks the point of attachment. Acetyl(9-fluorenyl) = O=C(CC1c2ccccc2-c2ccccc21)*; N,N‑diphenylcarbamoyl = O=C(N(c1ccccc1)c1ccccc1)*; Adamantane1carbonyl = O=C(C12CC3CC(CC(C3)C1)C2)*; N,N‑diethylcarbamoyl = CCN(CC)C(=O)*; Cyclopropanecarbonyl = O=C(C1CC1)*; Nle = CCCC[C@H](N)C(=O)O

Tests used:
Rat FPR = biological target: T1, Rat FPR (Rattus norvegicus, UniProt D4A7Q2); experiment: Competition binding with 6 nM 3H-fMLF to elicited rat PMNs; details: for competition binding of N-terminal modified NleLFK peptides (FIG. 8): peptides at 1 uM and 10 uM
T1 construct: endogenous in cells; host or cells: glycogen-elicited peritoneal neutrophils (PMNs) of Sprague-Dawley rats
T1 sequence (D4A7Q2 1-355): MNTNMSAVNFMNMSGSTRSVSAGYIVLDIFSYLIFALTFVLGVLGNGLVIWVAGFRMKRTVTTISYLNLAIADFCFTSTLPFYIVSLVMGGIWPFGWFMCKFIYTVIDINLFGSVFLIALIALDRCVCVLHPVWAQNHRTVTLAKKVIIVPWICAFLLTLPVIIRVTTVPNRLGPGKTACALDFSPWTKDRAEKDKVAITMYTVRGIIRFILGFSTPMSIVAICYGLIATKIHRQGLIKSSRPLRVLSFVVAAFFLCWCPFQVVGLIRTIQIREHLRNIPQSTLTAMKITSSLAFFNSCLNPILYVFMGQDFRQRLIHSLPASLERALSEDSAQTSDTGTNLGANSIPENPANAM
Experimental: (§1) Animals were sacrificed via administration of CO2 4 hours following peritoneal injection of 10 mL of 0.5% (w/v) oyster glycogen warmed to room temperature. Leukocyte harvesting via peritoneal lavage was performed using 20 mL of Hanks' buffered salt solution (HBSS−) containing 10 mM ethylene-diaminetetra-acetic acid (EDTA) disodium salt followed by a second lavage with 10 mL of HBSS− containing 10 mM EDTA. Exactly the same technique was performed on all rats with washes of the peritoneum prior to aspiration of samples approximating 1 minute. The volume of fluid recovered from each rat was approximately 20-25 mL and bloody lavages visibly containing significant red blood cell (RBC) populations were discarded.
(§2) Neutrophils isolated by peritoneal lavage were washed twice with 1 mL of HBSS− (without calcium chloride, magnesium chloride and magnesium sulfate) and centrifuged for ten minutes at 2000 rpms following each wash. PMNs utilized in functional assays were centrifuged at 25° C. while those used in binding assays were centrifuged at 4° C. to prevent internalization. A cold H2O RBC lysis was then performed with the addition of 9 mL of sterile ice-cold H2O and 1 mL of phosphate buffered saline (PBS) solution containing 0.1 M phosphate buffer, 0.027 M KCl and 1.37 M NaCl following resuspension of the sample in 1 mL of HBSS. Centrifugation was subsequently performed for ten minutes at 1600 rpms. White blood cell (WBC) differential stain containing saline, 2% acidic acid and phenol violet dye was used to identify the neutrophil population and trypan blue exclusion was used to determine viability of cells. As previously reported, 98% of leukocytes were neutrophils and approximately 95% of the cells were viable (Chen et al., 1996).
Competition binding assays for N-terminal capping groups and Re-libraries were conducted with 6 nM ^3H-fMLP in addition to the unlabelled competing analogue added at 1.0 uM and 10 uM to each well. […] Total binding in the competition assays was assessed in the presence of 1.0×10^6 PMNs per sample while non-specific binding was determined in the absence of cells. Each condition was performed in quadruplicate. Total activity added to each sample was determined from cpms obtained from a sample containing 6 nM ^3H-fMLF. Data was expressed as specific binding in fmols and converted to percent of total ^3H-fMLF binding (% control).
After a 1 hour incubation period at 4° C., the samples were harvested with the Tomtec Mach III Cell Harvester by vacuum aspiration onto 1.5 um pore size Skatron glass-fibre filter mats pre-treated with 0.1% polyethylenimine (w/v) for approximately 24 hours. Sample wells received three consecutive 12 second washes with 0.9% saline solution and 5 mL of liquid scintillation fluid was added to collected filters. Filters were counted for 2 minutes in the Beckman β-counter following exposure to scintillation fluid for 15 hours. Data was expressed in terms of specific binding in fmols converted to percent of total ^3H-fMLF binding (% control).
(§3) The curve-fitting program Prism was used to calculate KD, IC50 and EC50 values by fitting data to the one-site binding equations A, B and C respectively. • A. Equation: One site binding (hyperbola) Y=Bmax*X/(KD+X) • B. Equation: One site competition Y=Bottom+(Top−Bottom)/(1+10^(X−LogIC50)); with x=log (concentration) and y=binding • C. […] Additionally, Graph fit software was used to perform Scatchard analysis of saturation binding data and to confirm KD and Bmax values generated by Prism software.

human neutrophils = experiment: Myeloperoxidase release from human neutrophils; type: cell-based; details: result in words; for inhibition of MPO release in fMLF-stimulated human neutrophils (FIG. 4): 10 uM compound, fMLF 10^−8 M and 10^−6 M, p<0.05; for stimulation of MPO release by the compound itself in human neutrophils: up to 10 uM compound, low fMLF (10^−14M, 10^−12M)
Experimental: Approximately 30 mL of venous blood was collected from healthy volunteers with 100 units of heparin per mL of blood. Samples were then mixed with 8 mL of 6% dextran solution and incubated at 37° C. for 1 hour for RBC sedimentation. Leukocyte-rich plasma was collected and centrifuged at 1500 rpm for 5 minutes. Cell pellets were resuspended in 35 mL of saline and 10 mL of lymphocyte separation medium was layered over prior to additional centrifugation at 1200 rpm for 30 minutes. Sedimented cells were washed once with 35 mL of saline and RBCs were lysed by resuspension in 1.8 mL of sterile H2O for 15 seconds. Isotonicity was restored with the addition of 0.2 mL of 10×HBSS− followed by the addition of 35 mL of saline. Centrifugation at 1500 rpm for 5 minutes was then performed. Following final washing of the PMN pellet with 35 mL of saline, cell viability was determined via trypan blue exclusion and cell number was determined.
(§4) 0.5×10^6 PMNs per sample were incubated in 96-well Millipore Multiscreen 0.65 um filter plates. In a final volume of 150 uL, 50 uL of the respective fMLP analogues (10 uM to 1 pM) and/or fMLP (10 uM to 1.0 uM) were incubated with isolated PMNs pre-treated with cytochalasin B (5 ug/mL) for 10 minutes. Following a 30 minute incubation period at room temperature, the supernatant was collected into a 96-well polypropylene plate with the Millipore vacuum apparatus. A stock solution of o-phenylenediamine (OPD) was made to contain 2.5 mg of OPD, 5 ul of H2O2 and 10 mL HBSS+ and supernatant samples were subsequently incubated with 50 uL of OPD solution. The reaction was stopped after 2 minutes by the addition of 2.5M H2SO4. Photometric analysis was performed with the Thermomax Microplate Reader with optical density (O.D.490) values being read at a wavelength of 490 nm. Absorbance was measured against a blank containing 150 μl of HBSS+ which was subtracted from wells containing cells and the various treatments. MPO release was expressed as a percentage of the total release of myeloperoxidase in control wells containing cells ±fMLF.

elicited rat PMNs [1] = type: cell-based; details: MPO release, PMNs without fMLF, ± S.E.M.; for % Control (1 uM): test peptide 1 uM; for % Control (10 uM): test peptide 10 uM
Experimental: as §1, §2, §4, §3

elicited rat PMNs [2] = experiment: Myeloperoxidase release in elicited rat PMNs co-stimulated with 0.1 uM fMLF; type: cell-based; details: for antagonist function on MPO release in fMLF stimulated rat PMNs: 0.1 uM fMLF, inhibition at 10 uM, result in words; for % Control MPO release (1 uM capping group + 0.1 uM fMLF): 1 uM test peptide + 0.1 uM fMLF; for % Control MPO release (1 uM capping group + 0.1 uM fMLF) / % Control MPO Release (10 uM capping group + 0.1 uM fMLF): ± S.E.M.; for % Control MPO Release (10 uM capping group + 0.1 uM fMLF): 10 uM test peptide + 0.1 uM fMLF
Experimental: as §1, §2
as §4, with “In a final volume of 150 uL, 50 uL of the respective fMLP analogues (10 uM to 1 pM) and/or fMLP (10 uM to 1.0 uM) were incubated with isolated PMNs pre-treated with cytochalasin B (5 ug/mL) for 10 minutes.” left out

binding affinity, fold greater than N-t-BocMLF (Rat FPR; from rat FPR IC50 values)	% Control MPO release (1 uM capping group + 0.1 uM fMLF) (elicited rat PMNs [2]) [% control]	% Control MPO Release (10 uM capping group + 0.1 uM fMLF) (elicited rat PMNs [2]) [% control]	competition binding of N-terminal modified NleLFK peptides (FIG. 8) (Rat FPR; 6 nM 3H-fMLF, result in words, listed as N,N-diethylcarbamoyl-NleLFK)	IC50 (Rat FPR; elicited rat PMNs, 6 nM 3H-fMLF, 4° C. 1 hour, brackets = 95% confidence interval, read-out: Receptor Binding (IC50)) [µM]	Compound	inhibition of MPO release in fMLF-stimulated human neutrophils (FIG. 4) (human neutrophils)	stimulation of MPO release by the compound itself in human neutrophils (human neutrophils)	competition binding of N-terminal modified NleLFK peptides (FIG. 8) (Rat FPR; 6 nM 3H-fMLF, result in words)	% Control (1 uM) (elicited rat PMNs [1]) [% control]	% Control (10 uM) (elicited rat PMNs [1]) [% control]	antagonist function on MPO release in fMLF stimulated rat PMNs (elicited rat PMNs [2])	inhibition of 3H-fMLF binding at 10 uM compared with iso-BocMLFK (FIG. 8) (Rat FPR; peptide 10 uM, 6 nM 3H-fMLF, result in words)	competition binding of N-terminal modified NleLFK peptides (FIG. 8) (Rat FPR; 6 nM 3H-fMLF, result in words, listed as 6)
approximately 12 fold	–	–	–	–	ReO-CyclopropylCONH-nleu-leu-phe-trp-glu-lys(dimethylgly-t-butylgly-cys-gly)-gly-OH (Cyclopropanecarbonyl-[Nle]LFWEKG-OH; not fully specified (residue 6); printed as ReO-CyclopropylCONH-nleu-leu-phe-trp-glu-lys(dimethylgly-t-butylgly-cys-gly)-gly-OH; also: ReO chelate on Lys side chain) [ReORP553 17-01]	significantly inhibited the release of MPO	did not stimulate MPO release	–	–	–	–	–	–
–	161.7 ± 6.2	108.9 ± 28.5	–	–	Capping Group 16: Fluorenylmethylcarbonyl N-terminal capping group attached to peptide NleLFK ({Acetyl(9-fluorenyl)}-[Nle]LFK)	–	–	did not significantly decrease the amount of ^3H-fMLF binding	84.1 ± 27.6	59.9 ± 19.0	exhibited antagonist function in fMLF stimulated cells	–	–

Continued, compound first:

Compound	binding affinity, fold greater than N-t-BocMLF (Rat FPR; from rat FPR IC50 values)	% Control MPO release (1 uM capping group + 0.1 uM fMLF) (elicited rat PMNs [2]) [% control]	% Control MPO Release (10 uM capping group + 0.1 uM fMLF) (elicited rat PMNs [2]) [% control]	competition binding of N-terminal modified NleLFK peptides (FIG. 8) (Rat FPR; 6 nM 3H-fMLF, result in words, listed as N,N-diethylcarbamoyl-NleLFK)	IC50 (Rat FPR; elicited rat PMNs, 6 nM 3H-fMLF, 4° C. 1 hour, brackets = 95% confidence interval, read-out: Receptor Binding (IC50)) [µM]	inhibition of MPO release in fMLF-stimulated human neutrophils (FIG. 4) (human neutrophils)	stimulation of MPO release by the compound itself in human neutrophils (human neutrophils)	competition binding of N-terminal modified NleLFK peptides (FIG. 8) (Rat FPR; 6 nM 3H-fMLF, result in words)	% Control (1 uM) (elicited rat PMNs [1]) [% control]	% Control (10 uM) (elicited rat PMNs [1]) [% control]	antagonist function on MPO release in fMLF stimulated rat PMNs (elicited rat PMNs [2])	inhibition of 3H-fMLF binding at 10 uM compared with iso-BocMLFK (FIG. 8) (Rat FPR; peptide 10 uM, 6 nM 3H-fMLF, result in words)	competition binding of N-terminal modified NleLFK peptides (FIG. 8) (Rat FPR; 6 nM 3H-fMLF, result in words, listed as 6)
Capping Group 18: N,N-diphenylcarbamoyl N-terminal capping group attached to peptide NleLFK ({N,N‑diphenylcarbamoyl}-[Nle]LFK)	–	321.6 ± 8.6	185.9 ± 15.7	–	–	–	–	do not nullify binding affinity	142.7 ± 8.8	125.2 ± 1.5	–	inhibited ^3H-fMLF binding to a degree comparable with known antagonist iso-BocMLFK	–
Capping Group 13: Adamantylcarbonyl N-terminal capping group attached to peptide NleLFK (Adamantane1carbonyl-[Nle]LFK)	–	131.6 ± 30.9	128.6 ± 40.9	–	–	–	–	did not significantly decrease the amount of ^3H-fMLF binding	70.5 ± 14.9	71.7 ± 11.2	exhibited antagonist function in fMLF stimulated cells	–	–
N,N-diethylcarbamoyl-NleLFK ({N,N‑diethylcarbamoyl}-[Nle]LFK) [Capping Group 6]	–	283.3 ± 25.1	249.9 ± 6.2	inhibit ^3H-fMLF binding	–	–	–	–	113.8 ± 14.3	109.6 ± 3.3	inhibited MPO release	–	did not significantly decrease the amount of ^3H-fMLF binding
CSCC[C@H](NC(=O)OC(C)(C)C)C(=O)N[C@@H](CC(C)C)C(=O)N[C@@H](Cc1ccccc1)C(=O)O [N-t-BocMLF, N-tert-butyloxycarbonylated-methionyl-leucyl-phenylalanine, reference compound]	–	–	–	–	9.3	inhibited MPO release from fMLF stimulated cells	did not induce release	–	–	–	–	–	–
